Eight molecules from US6579899B1, “Composition for treatment of stress” (Massachusetts Institute of Technology, priority 1998, dated 2003) can be followed below.

What all share (format): in vivo, human
The test system of assay [1] is obese, stressed patients. In words: CES-D test of current levels of emotional distress in patients. The source says: (§1) A subgroup of obese individuals is identified, which individuals describe themselves as being unable to control their eating and who attempt to continue on a weight-reducing diet when experiencing emotional distress. […]
(§2) Objective measurements of emotional distress are made in some patients using the CES-D (Center for […] Depression Form) test, which measures current levels of emotional distress (Radloff, et al., The CES-D Scale: A Self Report Depression Scale for Research in the General Population Applied Psychological Measurement 1: 385-401, 1977); and the POMS (Profile of Mood States test, that assesses tension, depression, anger and confusion (McNair, et al., Profile of Mood States Manual;San Diego: Educational and Industrial Testing Service, 1971); both of these references are hereby incorporated by reference in their entirety. These tests are also given monthly during the treatment period. At the same time, patients also complete questionnaires that ask the patients to rate their appetite and hunger, and also to rate their tendency to eat in response to a variety of emotional and stressful triggers. The patients are also weighed monthly.

Assay [2] relates to obese, stressed patients. The assay is described as follows: questionnaire rating appetite and hunger. The arrangement: Appetite and Cravings: scale not given here.
Excerpt: as §1, §2

Assay [3] deals with obese, stressed patients. In words: questionnaire rating tendency to eat in response to emotional and stressful triggers. Set-up: Emotional Triggers: scale not given here.
Excerpt: as §1, §2

Assay [4] is described as follows: body weight in four month weight loss program. Particulars: for weight at the end of 4 months: patient seven, 45 then 60 mg/day.
Excerpt: as §1, §2

[5] abbreviates: patient seven, 45 then 60 mg/day, Month 1, baseline 20.
Where [6] appears, read: patient seven, 45 then 60 mg/day, Month 2, baseline 20.
The mark [7] stands for this setting: patient seven, 45 then 60 mg/day, Month 3, baseline 20.
Setting [8] is: patient seven, 45 then 60 mg/day, Month 4, baseline 20.
Where [9] appears, read: patient nine, 100 mg/day in divided doses, Month 1, baseline 9.
Where [10] appears, read: patient nine, 100 mg/day in divided doses, Month 2, baseline 9.
The mark [11] stands for this setting: patient nine, 100 mg/day in divided doses, Month 3, baseline 9.
Where [12] appears, read: patient nine, 100 mg/day in divided doses, Month 4, baseline 9.

Structures can show the parent of a compound that is named as a salt.

In the case of `CN(C)CCC=C1c2ccccc2CCc2ccccc21` [amitriptyline hydrochloride], the “Mood Scores CES-D” value in the assay with obese, stressed patients [1] (patient twelve, 75 then 100 mg/day, Month 1, baseline 29) is reported as 22; with obese, stressed patients [1] (patient twelve, 75 then 100 mg/day, Month 2, baseline 29), 20; in the assay with obese, stressed patients [1] (patient twelve, 75 then 100 mg/day, Month 3, baseline 29), 23; in the assay with obese, stressed patients [1] (patient twelve, 75 then 100 mg/day, Month 4, baseline 29) it was 18. Also, the “Appetite and Cravings” value in the assay on obese, stressed patients [2] (patient twelve, 75 then 100 mg/day, Month 1, baseline 19) is 16; with obese, stressed patients [2] (patient twelve, 75 then 100 mg/day, Month 2, baseline 19), 8; with obese, stressed patients [2] (patient twelve, 75 then 100 mg/day, Month 3, baseline 19), 13; in the assay with obese, stressed patients [2] (patient twelve, 75 then 100 mg/day, Month 4, baseline 19) it was 8. Also, the “Emotional Triggers” value worked out at 22 in the assay with obese, stressed patients [3] (patient twelve, 75 then 100 mg/day, Month 1, baseline 25); 13 with obese, stressed patients [3] (patient twelve, 75 then 100 mg/day, Month 2, baseline 25); 5 in the assay with obese, stressed patients [3] (patient twelve, 75 then 100 mg/day, Month 3, baseline 25); 3 in the assay on obese, stressed patients [3] (patient twelve, 75 then 100 mg/day, Month 4, baseline 25).

Consider `COCCCC/C(=N\OCCN)c1ccc(C(F)(F)F)cc1` [fluvoxamine maleate], for which the “Mood Scores CES-D” value came out at 26 with obese, stressed patients [1] (patient three, 50 rising to 150 mg/day, Month 1, baseline 23); 16 in the assay on obese, stressed patients [1] (patient three, 50 rising to 150 mg/day, Month 2, baseline 23); 15 with obese, stressed patients [1] (patient three, 50 rising to 150 mg/day, Month 3, baseline 23); 17 in the assay on obese, stressed patients [1] (patient three, 50 rising to 150 mg/day, Month 4, baseline 23). For the same molecule, the “Appetite and Cravings” value in the assay with obese, stressed patients [2] (patient three, 50 rising to 150 mg/day, Month 1, baseline 18) amounted to 16; in the assay with obese, stressed patients [2] (patient three, 50 rising to 150 mg/day, Month 2, baseline 18), 11; in the assay on obese, stressed patients [2] (patient three, 50 rising to 150 mg/day, Month 3, baseline 18) it was 12; with obese, stressed patients [2] (patient three, 50 rising to 150 mg/day, Month 4, baseline 18) it was 14. The “Emotional Triggers” value amounted to 27 in the assay with obese, stressed patients [3] (patient three, 50 rising to 150 mg/day, Month 1, baseline 34); 30 in the assay with obese, stressed patients [3] (patient three, 50 rising to 150 mg/day, Month 2, baseline 34); 20 in the assay with obese, stressed patients [3] (patient three, 50 rising to 150 mg/day, Month 3, baseline 34); 24 with obese, stressed patients [3] (patient three, 50 rising to 150 mg/day, Month 4, baseline 34).

In the case of `NNCCc1ccccc1` [phenelzine sulfate], the “Mood Scores CES-D” value with obese, stressed patients [1] (setting [5]) is 22; in the assay on obese, stressed patients [1] (setting [6]), 20; with obese, stressed patients [1] (setting [7]), 15; in the assay with obese, stressed patients [1] (setting [8]) it was 14. Further, the “Appetite and Cravings” value in the assay on obese, stressed patients [2] (patient seven, 45 then 60 mg/day, Month 1, baseline 19) amounted to 15; with obese, stressed patients [2] (patient seven, 45 then 60 mg/day, Month 2, baseline 19), 8; with obese, stressed patients [2] (patient seven, 45 then 60 mg/day, Month 3, baseline 19) it was 13; in the assay on obese, stressed patients [2] (patient seven, 45 then 60 mg/day, Month 4, baseline 19), 12. For the same molecule, the “Emotional Triggers” value turned out to be 8 in the assay on obese, stressed patients [3] (setting [5]); 13 with obese, stressed patients [3] (setting [6]); 6 in the assay with obese, stressed patients [3] (setting [7]); 7 with obese, stressed patients [3] (setting [8]). Moreover, the “weight at the end of 4 months” value in assay [4] (starting weight 83.6 kg) came to 79.1 kg; in assay [4] (starting weight 184 pounds), 174 pounds.

Take `CN(C)CCCN1c2ccccc2CCc2ccccc21` [imipramine hydrochloride]: the “Mood Scores CES-D” value with obese, stressed patients [1] (patient five, intramuscular 75 mg/day, Month 1, baseline 36) amounted to 34; in the assay on obese, stressed patients [1] (patient five, intramuscular 75 mg/day, Month 2, baseline 36), 26; in the assay with obese, stressed patients [1] (patient five, intramuscular 75 mg/day, Month 3, baseline 36), 21; in the assay on obese, stressed patients [1] (patient five, intramuscular 75 mg/day, Month 4, baseline 36), 20. The “Appetite and Cravings” value with obese, stressed patients [2] (patient five, intramuscular 75 mg/day, Month 1, baseline 15) worked out at 12; in the assay on obese, stressed patients [2] (patient five, intramuscular 75 mg/day, Month 2, baseline 15), 7; in the assay on obese, stressed patients [2] (patient five, intramuscular 75 mg/day, Month 3, baseline 15), 3; in the assay with obese, stressed patients [2] (patient five, intramuscular 75 mg/day, Month 4, baseline 15) it was 6. In addition, the “Emotional Triggers” value in the assay on obese, stressed patients [3] (patient five, intramuscular 75 mg/day, Month 1, baseline 22) is 15; with obese, stressed patients [3] (patient five, intramuscular 75 mg/day, Month 2, baseline 22), 14; with obese, stressed patients [3] (patient five, intramuscular 75 mg/day, Month 3, baseline 22) it was 6; in the assay on obese, stressed patients [3] (patient five, intramuscular 75 mg/day, Month 4, baseline 22), 8. The “weight after 4 months” value in assay [4] (patient five, intramuscular 75 mg/day, starting weight 74.1 kg) is 70.4 kg; in assay [4] (patient five, intramuscular 75 mg/day, starting weight 163 pounds), 155 pounds.

For `O=C([O-])[O-].[Li+].[Li+]` [lithium carbonate], the “Mood Scores CES-D” value in the assay on obese, stressed patients [1] (patient one, 900 mg/day, Month 1, baseline 4) was 3; with obese, stressed patients [1] (patient one, 900 mg/day, Month 2, baseline 4), 3; in the assay with obese, stressed patients [1] (patient one, 900 mg/day, Month 3, baseline 4) it was 2; in the assay with obese, stressed patients [1] (patient one, 900 mg/day, Month 4, baseline 4), 2. Besides, the “Appetite and Cravings” value is reported as 6 in the assay with obese, stressed patients [2] (patient one, 900 mg/day, Month 1, baseline 14); 9 in the assay with obese, stressed patients [2] (patient one, 900 mg/day, Month 2, baseline 14); 5 in the assay with obese, stressed patients [2] (patient one, 900 mg/day, Month 3, baseline 14); 3 in the assay on obese, stressed patients [2] (patient one, 900 mg/day, Month 4, baseline 14). The “Emotional Triggers” value was determined as 16 in the assay with obese, stressed patients [3] (patient one, 900 mg/day, Month 1, baseline 15); 10 with obese, stressed patients [3] (patient one, 900 mg/day, Month 2, baseline 15); 6 with obese, stressed patients [3] (patient one, 900 mg/day, Month 3, baseline 15); 7 in the assay with obese, stressed patients [3] (patient one, 900 mg/day, Month 4, baseline 15). Further, the “weight after 4 months” value in assay [4] (patient one, 900 mg/day, starting weight 111.8 kg) amounted to 102.3 kg; in assay [4] (patient one, 900 mg/day, starting weight 246 pounds) it was 225 pounds.

Take `O=c1n(CCCN2CCN(c3cccc(Cl)c3)CC2)nc2ccccn12` [trazodone hydrochloride]: the “Mood Scores CES-D” value is listed as 16 in the assay on obese, stressed patients [1] (setting [9]); 16 with obese, stressed patients [1] (setting [10]); 10 in the assay on obese, stressed patients [1] (setting [11]); 1 in the assay on obese, stressed patients [1] (setting [12]). The “Appetite and Cravings” value in the assay with obese, stressed patients [2] (setting [9]) stood at 5; in the assay with obese, stressed patients [2] (setting [10]) it was 5; with obese, stressed patients [2] (setting [11]) it was 3; with obese, stressed patients [2] (setting [12]), 5. Also, the “Emotional Triggers” value in the assay on obese, stressed patients [3] (patient nine, 100 mg/day in divided doses, Month 1, baseline 12) came out at 12; in the assay with obese, stressed patients [3] (patient nine, 100 mg/day in divided doses, Month 2, baseline 12), 9; in the assay with obese, stressed patients [3] (patient nine, 100 mg/day in divided doses, Month 3, baseline 12), 5; in the assay on obese, stressed patients [3] (patient nine, 100 mg/day in divided doses, Month 4, baseline 12) it was 3.

In the case of `CCN[C@@H](C)Cc1cccc(C(F)(F)F)c1` [dexfenfluramine hydrochloride], the “Mood Scores CES-D” value was 5 with obese, stressed patients [1] (patient eleven, 30 mg/day, Month 1, baseline 19); 2 with obese, stressed patients [1] (patient eleven, 30 mg/day, Month 2, baseline 19); 3 in the assay with obese, stressed patients [1] (patient eleven, 30 mg/day, Month 3, baseline 19). Besides, the “Appetite and Cravings” value amounted to 6 with obese, stressed patients [2] (patient eleven, 30 mg/day, Month 1, baseline 9); 8 in the assay with obese, stressed patients [2] (patient eleven, 30 mg/day, Month 2, baseline 9); 3 in the assay on obese, stressed patients [2] (patient eleven, 30 mg/day, Month 3, baseline 9); 5 in the assay with obese, stressed patients [2] (patient eleven, 30 mg/day, Month 4, baseline 9). Further, the “Emotional Triggers” value in the assay with obese, stressed patients [3] (patient eleven, 30 mg/day, Month 1, baseline 30) was determined as 12; in the assay on obese, stressed patients [3] (patient eleven, 30 mg/day, Month 2, baseline 30), 13; in the assay on obese, stressed patients [3] (patient eleven, 30 mg/day, Month 3, baseline 30), 5.

As for `COc1ccc(C(CN(C)C)C2(O)CCCCC2)cc1` (stereo not shown) [venlafaxine hydrochloride], the “Mood Scores CES-D” value with obese, stressed patients [1] (patient ten, 75 rising to 150 mg/day, Month 1, baseline 8) is listed as 4; in the assay on obese, stressed patients [1] (patient ten, 75 rising to 150 mg/day, Month 2, baseline 8), 6; with obese, stressed patients [1] (patient ten, 75 rising to 150 mg/day, Month 3, baseline 8), 2; with obese, stressed patients [1] (patient ten, 75 rising to 150 mg/day, Month 4, baseline 8) it was 2. The “Appetite and Cravings” value came out at 6 in the assay on obese, stressed patients [2] (patient ten, 75 rising to 150 mg/day, Month 1, baseline 10); 7 in the assay on obese, stressed patients [2] (patient ten, 75 rising to 150 mg/day, Month 2, baseline 10); 3 with obese, stressed patients [2] (patient ten, 75 rising to 150 mg/day, Month 3, baseline 10); 1 in the assay on obese, stressed patients [2] (patient ten, 75 rising to 150 mg/day, Month 4, baseline 10). For the same molecule, the “Emotional Triggers” value in the assay on obese, stressed patients [3] (patient ten, 75 rising to 150 mg/day, Month 1, baseline 14) was 9; with obese, stressed patients [3] (patient ten, 75 rising to 150 mg/day, Month 2, baseline 14), 4; with obese, stressed patients [3] (patient ten, 75 rising to 150 mg/day, Month 3, baseline 14) it was 6; in the assay with obese, stressed patients [3] (patient ten, 75 rising to 150 mg/day, Month 4, baseline 14), 2.
